For assay [1], the target named is T1, Progesterone receptor (Bos taurus, UniProt Q690N0).
T1 sequence (Q690N0 whole entry): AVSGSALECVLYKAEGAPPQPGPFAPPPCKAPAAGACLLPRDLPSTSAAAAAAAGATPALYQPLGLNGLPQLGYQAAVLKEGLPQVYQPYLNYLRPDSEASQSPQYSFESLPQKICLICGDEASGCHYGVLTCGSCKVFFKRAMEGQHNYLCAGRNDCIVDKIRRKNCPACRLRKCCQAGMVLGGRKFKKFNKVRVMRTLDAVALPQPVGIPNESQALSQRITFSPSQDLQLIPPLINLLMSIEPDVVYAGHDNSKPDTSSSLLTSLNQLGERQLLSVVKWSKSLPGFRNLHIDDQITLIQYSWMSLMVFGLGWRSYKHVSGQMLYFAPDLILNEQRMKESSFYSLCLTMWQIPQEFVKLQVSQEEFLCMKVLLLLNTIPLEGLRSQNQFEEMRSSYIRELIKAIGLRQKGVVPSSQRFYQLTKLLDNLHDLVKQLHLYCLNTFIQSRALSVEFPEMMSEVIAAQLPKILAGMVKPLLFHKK
As to the kind of experiment: DRUGMATRIX: Progesterone radioligand binding (ligand: [3H] R-5020). The class given is tissue-based, Uterus. To be noted: Not Active = under 50% inhibition at 10 µM; for Ki: read-out: Ki.

The nature of assay [2]: DRUGMATRIX: Glutamate, AMPA radioligand binding (ligand: [3H] AMPA). Format: cell membranes, Rattus norvegicus, Wistar, Cerebral cortex, Membrane. To be noted: Not Active = under 50% inhibition at 10 µM.
In assay [3] the target is T2, 5-hydroxytryptamine receptor 2C (Homo sapiens, UniProt P28335).
T2 sequence (P28335 whole entry): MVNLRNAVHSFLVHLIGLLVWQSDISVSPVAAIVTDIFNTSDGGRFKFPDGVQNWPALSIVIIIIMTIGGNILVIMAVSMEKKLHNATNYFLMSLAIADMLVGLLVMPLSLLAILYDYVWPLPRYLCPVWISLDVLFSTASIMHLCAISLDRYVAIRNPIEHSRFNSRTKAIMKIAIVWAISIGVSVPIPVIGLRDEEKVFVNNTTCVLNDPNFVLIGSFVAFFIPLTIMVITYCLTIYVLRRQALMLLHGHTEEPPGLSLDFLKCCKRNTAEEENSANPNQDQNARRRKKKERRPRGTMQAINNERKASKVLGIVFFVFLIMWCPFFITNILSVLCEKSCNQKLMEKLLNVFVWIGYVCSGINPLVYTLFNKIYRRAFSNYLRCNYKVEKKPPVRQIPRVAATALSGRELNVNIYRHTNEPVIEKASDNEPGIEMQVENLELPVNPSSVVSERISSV
As to the kind of experiment: DRUGMATRIX: Serotonin (5-Hydroxytryptamine) 5-HT2C radioligand binding (ligand: [3H] Mesulergine). The class given is cell membranes, CHO-K1, Membrane. The conditions noted are these: cho-k1; Not Active = under 50% inhibition at 10 µM.

The target of assay [4] is Tyrosine-protein kinase Lck (Homo sapiens, UniProt P06239). Nature of the assay: DRUGMATRIX: Protein Tyrosine Kinase, LCK enzyme inhibition (substrate: Poly(Glu:Tyr)). To be noted: insect cells; Not Active = under 50% inhibition at 10 µM. The class given is cell-based, Insect cells.
Assay [5] addresses T3, Alpha-1D adrenergic receptor (Homo sapiens, UniProt P25100).
T3 sequence (P25100 whole entry): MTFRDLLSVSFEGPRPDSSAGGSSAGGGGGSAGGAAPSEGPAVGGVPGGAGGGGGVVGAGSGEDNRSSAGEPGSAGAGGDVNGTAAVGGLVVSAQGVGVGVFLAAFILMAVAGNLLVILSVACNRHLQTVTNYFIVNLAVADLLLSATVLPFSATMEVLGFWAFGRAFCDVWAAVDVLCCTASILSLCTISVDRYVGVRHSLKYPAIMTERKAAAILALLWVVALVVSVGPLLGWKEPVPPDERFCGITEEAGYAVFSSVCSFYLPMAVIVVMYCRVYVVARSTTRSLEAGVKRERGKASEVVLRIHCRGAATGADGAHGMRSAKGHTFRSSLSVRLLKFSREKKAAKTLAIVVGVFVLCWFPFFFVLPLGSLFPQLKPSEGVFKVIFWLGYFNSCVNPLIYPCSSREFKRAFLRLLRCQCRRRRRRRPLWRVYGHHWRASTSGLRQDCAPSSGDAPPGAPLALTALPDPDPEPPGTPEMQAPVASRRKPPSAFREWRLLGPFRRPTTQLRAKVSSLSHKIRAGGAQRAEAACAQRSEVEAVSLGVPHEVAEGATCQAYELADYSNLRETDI
Format: cell membranes, HEK293, Membrane. To be noted: hek293.

For assay [6], the target named is T4, B2 bradykinin receptor (Homo sapiens, UniProt P30411). Further: in other assays of this panel Not Active means under 50% inhibition at 10 µM.
T4 sequence (P30411 whole entry): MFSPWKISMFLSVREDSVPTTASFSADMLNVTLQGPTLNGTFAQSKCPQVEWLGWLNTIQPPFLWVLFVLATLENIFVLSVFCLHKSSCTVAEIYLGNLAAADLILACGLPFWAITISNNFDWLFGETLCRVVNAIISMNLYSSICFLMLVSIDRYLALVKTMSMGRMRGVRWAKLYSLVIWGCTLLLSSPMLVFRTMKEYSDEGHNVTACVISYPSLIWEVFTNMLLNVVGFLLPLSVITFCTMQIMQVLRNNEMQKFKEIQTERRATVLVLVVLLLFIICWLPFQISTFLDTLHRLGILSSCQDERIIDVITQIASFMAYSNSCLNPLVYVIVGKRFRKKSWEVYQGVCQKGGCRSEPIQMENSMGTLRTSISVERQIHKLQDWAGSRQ
Format: cell membranes, Membrane. The conditions noted are these: chem-1.

Assay [7] is described as follows: DRUGMATRIX: GABAA, Flunitrazepam, Central radioligand binding (ligand: [3H] Flunitrazepam). The class given is cell membranes, Rattus norvegicus, Wistar, Brain, Membrane. The conditions noted are these: Not Active = under 50% inhibition at 10 µM.
In assay [8] the target is T5, Interstitial collagenase (Homo sapiens, UniProt P03956).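 Further: MMP-1 enzyme inhibition assay using a peptide substrate; in other assays of this panel Not Active means under 50% inhibition at 10 µM.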
T5 sequence (P03956 whole entry): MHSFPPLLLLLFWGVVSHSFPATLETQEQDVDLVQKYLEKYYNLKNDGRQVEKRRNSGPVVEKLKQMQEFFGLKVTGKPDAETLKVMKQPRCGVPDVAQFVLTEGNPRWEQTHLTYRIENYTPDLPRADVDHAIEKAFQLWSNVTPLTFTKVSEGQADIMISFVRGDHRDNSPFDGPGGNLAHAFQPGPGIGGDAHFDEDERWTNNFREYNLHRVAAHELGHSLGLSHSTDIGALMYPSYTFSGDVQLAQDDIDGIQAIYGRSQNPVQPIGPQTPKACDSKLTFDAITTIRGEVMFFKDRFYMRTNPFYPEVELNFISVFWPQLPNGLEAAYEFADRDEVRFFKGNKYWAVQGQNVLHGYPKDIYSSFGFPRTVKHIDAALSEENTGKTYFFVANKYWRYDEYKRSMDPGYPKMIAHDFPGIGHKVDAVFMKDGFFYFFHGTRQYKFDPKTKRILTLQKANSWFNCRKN
The class given is tissue-based, Rheumatoid synovial fibroblasts.

Sequence of Tyrosine-protein kinase Lck (P06239 whole entry): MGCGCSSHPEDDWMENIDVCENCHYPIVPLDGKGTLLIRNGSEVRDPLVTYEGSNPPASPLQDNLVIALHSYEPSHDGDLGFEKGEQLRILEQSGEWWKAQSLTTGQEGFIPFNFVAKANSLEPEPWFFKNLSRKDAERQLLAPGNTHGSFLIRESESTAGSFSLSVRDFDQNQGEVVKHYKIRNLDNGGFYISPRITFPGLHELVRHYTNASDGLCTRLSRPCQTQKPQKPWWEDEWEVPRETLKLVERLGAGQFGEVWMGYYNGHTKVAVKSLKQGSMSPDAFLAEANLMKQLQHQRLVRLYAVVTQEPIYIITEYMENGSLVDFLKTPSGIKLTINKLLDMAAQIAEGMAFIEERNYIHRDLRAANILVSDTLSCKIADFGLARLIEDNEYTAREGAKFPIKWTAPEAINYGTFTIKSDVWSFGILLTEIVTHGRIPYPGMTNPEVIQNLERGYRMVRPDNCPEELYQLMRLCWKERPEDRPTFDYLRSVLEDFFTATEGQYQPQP

Consider `CC[C@H]1OC(=O)[C@H](C)[C@@H](O[C@H]2C[C@@](C)(OC)[C@@H](O)[C@H](C)O2)[C@H](C)[C@@H](O[C@@H]2O[C@H](C)C[C@H](N(C)C)[C@H]2O)[C@](C)(O)C[C@@H](C)/C(=N\OCOCCOC)[C@H](C)[C@@H](O)[C@]1(C)O` [ROXITHROMYCIN], for which the IC50 entry in assay [1], in assay [2], in assay [3], in assay [4], in assay [5] and in assay [6] was “Not Active” each time. The IC50 entry in assay [7] and in assay [8] was “Not Active” in each case. Also, the Ki entry in assay [2] and in assay [7] was “Not Active” each time.

As to `NC(=O)c1ccccc1O` [SALICYLAMIDE], the half-inhibitory concentration (IC50) entry in assay [1], in assay [2], in assay [3], in assay [4], in assay [5] and in assay [6] was “Not Active” each time. Moreover, the IC50 entry in assay [7] and in assay [8] was “Not Active” throughout. Moreover, the Ki result in assay [2] and in assay [7] was “Not Active” throughout.

`Cc1ncc([N+](=O)[O-])n1CC(C)O` (configuration not stated) [SECNIDAZOLE]: the IC50 result in assay [1], in assay [2], in assay [3], in assay [4], in assay [5] and in assay [6] was “Not Active” in each case. Also, the IC50 result in assay [7] and in assay [8] was “Not Active” each time. The inhibition constant Ki entry in assay [2] and in assay [7] was “Not Active” throughout.

As to `CN[C@@H]1[C@@H](O)[C@@H](O[C@@H]2[C@@H](O)[C@H](O[C@H]3OC(CN)=CC[C@H]3N)[C@@H](N)C[C@H]2N)OC[C@]1(C)O` [SISOMICIN], the IC50 result in assay [1], in assay [2], in assay [3], in assay [4], in assay [5] and in assay [6] was “Not Active” in each case. Also, the IC50 result in assay [7] and in assay [8] was “Not Active” throughout. Also, the Ki entry in assay [2] and in assay [7] was “Not Active” each time.

As to `CC(=O)S[C@@H]1CC2=CC(=O)CC[C@]2(C)[C@H]2CC[C@@]3(C)[C@@H](CC[C@@]34CCC(=O)O4)[C@H]12` [SPIRONOLACTONE], the IC50 (in general, the concentration that gives 50% inhibition) was 1670 nM in assay [1] (read-out: IC50); “Not Active” in assay [2]; “Not Active” in assay [3]; “Not Active” in assay [4]; “Not Active” in assay [5]; “Not Active” in assay [6]. In addition, the IC50 entry in assay [7] and in assay [8] was “Not Active” each time. Moreover, the results for the inhibition constant (Ki) in assay [1], in assay [2] and in assay [7] were 217 nM, “Not Active” and “Not Active”, respectively.

Take `C[C@]12Cc3c[nH]nc3C[C@@H]1CC[C@@H]1[C@@H]2CC[C@@]2(C)[C@H]1CC[C@]2(C)O` [STANOZOLOL]: the IC50 was 3710 nM in assay [1] (read-out: IC50); “Not Active” in assay [2]; “Not Active” in assay [3]; “Not Active” in assay [4]; “Not Active” in assay [5]; “Not Active” in assay [6]. In addition, the concentration for half-maximal inhibition (IC50) entry in assay [7] and in assay [8] was “Not Active” each time. Also, the inhibitory constant (Ki) (usually a measure of affinity in units of concentration, obtained from inhibition or displacement) in assay [1] is 483 nM; in assay [2], “Not Active”; in assay [7], “Not Active”.

As to `CN(N=O)C(=O)N[C@@H](C=O)[C@@H](O)[C@H](O)[C@H](O)CO` [STREPTOZOCIN], the IC50 result in assay [1], in assay [2], in assay [3], in assay [4], in assay [5] and in assay [6] was “Not Active” in each case. The IC50 entry in assay [7] and in assay [8] was “Not Active” throughout. In addition, the Ki result in assay [2] and in assay [7] was “Not Active” throughout.

Consider `Cc1cc(NS(=O)(=O)c2ccc(N)cc2)no1` [SULFAMETHOXAZOLE], for which the IC50 entry in assay [1], in assay [2], in assay [3], in assay [4], in assay [5] and in assay [6] was “Not Active” in each case. The IC50 result in assay [7] and in assay [8] was “Not Active” each time. Besides, the Ki entry in assay [2] and in assay [7] was “Not Active” each time.

`Nc1ccc(S(N)(=O)=O)cc1` [SULFANILAMIDE]: the IC50 result in assay [1], in assay [2], in assay [3], in assay [4], in assay [5] and in assay [6] was “Not Active” throughout. The 50% inhibitory concentration (IC50) entry in assay [7] and in assay [8] was “Not Active” throughout. For the same molecule, the Ki entry in assay [2] and in assay [7] was “Not Active” each time.

Source of the values: ChEMBL document CHEMBL1909046, “DrugMatrix in vitro pharmacology data”.
